Reference: patent US20210106674A1, “Gene Therapy For Mesothelioma” (The Trustees of the University of Pennsylvania, priority 2019, published 2021)
Marks after values point to notes of the source that are not given here.

Columns and labels:
[1] = system: CD8 T cells and NK cells; experiment: Flow cytometry of PBMC: CD69 on CD8 T cells and NK cells; type: in vivo, Human
Description: PBMCs were studied from a set of six patients who responded to therapy and 6 patients who progressed with treatment (Table 6).
PBMC were thawed and the activation of natural killer cell (NK) and T cells was assessed using flow cytometry as detailed in the Supplemental Methods (see also Ref 19).
All mAbs were from BD Biosciences (San Diego, Calif.) and R&D systems (Minneapolis, Minn., USA).
Details of the cell preparation and staining have been previously published (Stevenson J P, Kindler H L, Papasavvas E, et al. Immunological effects of anti-transforming growth factor-beta (TGF-beta) antibody GC1008 in cancer patients with malignant pleural mesothelioma (MPM). Oncoimmunology 2013; 8:e26218). Analysis was done by collecting 100,000 live lymphocytes (defined by size and granularity in FSC and SSC). Dead cells were excluded by manual gating in FSC/SSC. Detection thresholds were set according to isotype-matched negative controls. Results were expressed as Mean Fluorescent Intensity (MFI) and percent (%) of lymphocytes, NK cells (Lin3-CD56dimCD16+), CD3+CD4+ or CD3+CD8+ T cells. Data analysis was performed using FloJo software (Tree Star, San Carlos, Calif.).
Data were described as medians, 25th and 75th percentiles. Comparisons between responders (n=6) and non-responders (n=6) at each time point were done using Wilcoxon Kruskal-Wallis tests (Rank Sums). Differences between time points for all patients (n=12) were tested using Wilcoxon Signed-Rank or paired t-tests depending on data distribution, while differences between time points in responders (n=6) and in non-responders (n=6) were tested using Wilcoxon Signed-Rank. p values that were less than 0.05 were considered statistically significant. All statistics used JMP Pro11®.

[2] = system: serum mesothelin-related protein (SMRP); experiment: ELISA of serum mesothelin-related protein (SMRP); type: in vivo, Human; settings: compared to baseline
From the text: See Supplemental Methods for details.

[3] = system: purified mesothelin and extracts from allogeneic mesothelioma cell lines; experiment: Immunoblotting with patient serum for induced anti-tumor antibodies; type: in vivo, Human; design: key to Antibody Response: 0 = no change; 1 = marginal changes; 2 = significant changes
Description: Enzyme-linked immunosorbent assays (ELISAs) were used to measure IFN-α2b levels (PBL Biomedical Labs; Piscataway, N.J.), as well as serum mesothelin-related protein (SMRP) levels (Fujirebio, Inc., Malvern, Pa.). Neutralizing adenovirus antibody titers (Nabs) were assessed as previously described (5). To detect induced humoral responses against tumor antigens, we performed immunoblotting against purified mesothelin and extracts from allogeneic mesothelioma cell lines using pre- and post-treatment serum as previously described (4-6). See Supplemental Methods for details.
To detect induced humoral responses against tumor antigens, we performed immunoblotting against purified mesothelin and extracts from allogeneic mesothelioma cell lines. Purified mesothelin was purchased from Raybiotech (Norcross, Ga.). Cell lines were derived from patient pleural fluid samples from previous clinical trials and were grown in culture as previously described (Sterman D H, Reico A, Haas A R, et al. A phase I trial of repeated Intrapleural adenoviral-mediated interferon-beta gene transfer for mesothelioma and metastatic pleural effusion. Mol Ther 2010; 18: 852-60). Extracts from cells or purified proteins were prepared and immunoblotted with patient serum (diluted at 1:1500) from time points before treatment, and 6 weeks after treatment as previously described (Sterman et al., 2010). Multiple exposures were obtained and comparisons were made on the exposures in which the major bands detected on pre-treatment blots were of equal intensity in post-treatment blots.
The blots were semi-quantitatively scored as follows: 0=no change in any bands; 1=minimal changes (i.e. increased intensity in one or two bands); 2=clear increases in >2 bands or appearance of new bands.

[4] = system: MPM; settings: published trial, Pem re-treat with pem; cited from earlier work
[5] = system: MPM; experiment: Recent published trials of chemotherapy in MPM (historical comparison); type: in vivo; settings: average of three published trials of pemetrexed re-treatment (103 patients)
[6] = post-treatment serum, 39 patients analysed

nadofaragene firadenovec [Ad.IFN]
CD8 T Cells: % Positive for CD69 ([1]; Good Responders, D 2, median): 26.6 (IQR: 23.2- %
NK Cells: % Positive for CD69 ([1]; Good Responders, D 2, median, p = 0.03 vs Baseline): 66.6* (IQR: 42.1- %
CD8 T Cells: % Positive for CD69 ([1]; Good Responders, D 15, median): 16.6 (IQR: 11.5- %
NK Cells: % Positive for CD69 ([1]; Good Responders, D 15, median): 20.9 (IQR: 5.8- %
CD8 T Cells: % Positive for CD69 ([1]; Poor Responders, D 2, median): 22.1 (IQR: 9.9- %
NK Cells: % Positive for CD69 ([1]; Poor Responders, D 2, median): 33.3 (IQR: 22.8- %
CD8 T Cells: % Positive for CD69 ([1]; Poor Responders, D 15, median): 14.9 (IQR: 10.5- %
NK Cells: % Positive for CD69 ([1]; Poor Responders, D 15, median): 22.7 (IQR: 13.2- %
patients with a greater than 20% decrease in SMRP level ([2]; at some time point): 15 of the 27 patients
patients with more than a 20% increase in SMRP level [2]: 12 of the 27 patients
Antibody Response ([3]; patient 402): 2
Antibody Response ([3]; patient 404): 0
Antibody Response ([3]; patient 405): 2
Antibody Response ([3]; patient 406): 1
Antibody Response ([3]; patient 411): 0
Antibody Response ([3]; patient 416): 0
Antibody Response ([3]; patient 417): 2
Antibody Response ([3]; patient 421): 2
Antibody Response ([3]; patient 422): 2
Antibody Response ([3]; patient 423): 1
Antibody Response ([3]; patient 425): 1
Antibody Response ([3]; patient 429): 1
patients with clear increases in anti-tumor bands [3, 6]: 14 patients
patients with minimal changes in tumor bands [3, 6]: 14 patients
patients with no changes in number or intensity of anti-tumor immunoblot bands [3, 6]: 11 patients

Nc1nc2[nH]cc(CCc3ccc(C(=O)N[C@@H](CCC(=O)O)C(=O)O)cc3)c2c(=O)[nH]1 [pem, pemetrexed]
2 yr OS [4]: 30%)
Median OS, Average [5]: 11.7 mo
Response rate, Average [5]: 18%
TTP/PFS, Average [5]: 5.1 mo
